In patent publication US20230117034A1, “PYRAZOLOTRIAZINES” (Bayer Aktiengesellschaft, priority 2019, published 2023):

Legend:
[1] = molecular target: T1, CYCLIN K (nuclear staining in CAL-120 cells) (Homo sapiens, UniProt O75909); experiment: CYCLIN K nuclear protein level: immunofluorescence high content analysis (CAL-120); type: cell-based; conditions: 24 h, 50% reduction of nuclear CCNK staining intensity, median, read-out: CYCLIN K degradation IF, DC50-[mol/l] (median)
T1 construct: endogenous in cells; host or cells: CAL-120 human breast cancer cells (DSMZ ACC 459)
How it was run: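 CAL-120 breast cancer cells treated in dose-response for 24 h at 37 °C, PFA-fixed and immunostained for cyclin K with Hoechst counterstain. Confocal imaging quantified nuclear intensity; DC50 is the concentration giving 50% reduction of nuclear CCNK staining, normalized to DMSO and control.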

CDK2/CycE = molecular target: T2, CDK2/CycE (Homo sapiens, UniProt P24941); experiment: CDK2/CycE kinase assay (TR-FRET, 2 mM ATP); type: biochemical; conditions: 2 mM ATP (high ATP); median; read-out: CDK2/CyclinE, 2 mM ATP (high ATP), IC50 (median)
T2 construct: purchased ProQinase GmbH (Freiburg, Germany); host or cells: insect cells (Sf9)
How it was run: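 GST-tagged human CDK2 and CycE from Sf9 cells, about 10 ng/ml, pre-incubated 15 min at 22 °C with compound in Tris/HCl pH 8.0 buffer. Reaction with 2 mM ATP and 0.75 µM biotinylated peptide for 25 min at 22 °C. Phospho-RB antibody TR-FRET (665/620 nm ratio) read after 1 h; data normalised to no-inhibitor and no-enzyme controls.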

[2] = system: CAL-120, human breast adenocarcinoma cells; experiment: Proliferation assay CAL-120 (crystal violet, 4 days); type: cell-based; conditions: Homo sapiens, CAL-120, 96 h, CAL-120 cells, median, read-out: Prolif-CAL-120, IC50-[mol/l] (median)
How it was run: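 Plated 4,000 cells/well, 10% FCS; 24 h later treated 0.01-10 µmol/L cpd (DMSO 0.1%), 4 d. Fix glutaraldehyde, stain 0.1% crystal violet pH 3.0, elute acetic acid, A595. Normalized to t0 plate/untreated; 4-param IC50.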

T1 sequence (O75909 whole entry): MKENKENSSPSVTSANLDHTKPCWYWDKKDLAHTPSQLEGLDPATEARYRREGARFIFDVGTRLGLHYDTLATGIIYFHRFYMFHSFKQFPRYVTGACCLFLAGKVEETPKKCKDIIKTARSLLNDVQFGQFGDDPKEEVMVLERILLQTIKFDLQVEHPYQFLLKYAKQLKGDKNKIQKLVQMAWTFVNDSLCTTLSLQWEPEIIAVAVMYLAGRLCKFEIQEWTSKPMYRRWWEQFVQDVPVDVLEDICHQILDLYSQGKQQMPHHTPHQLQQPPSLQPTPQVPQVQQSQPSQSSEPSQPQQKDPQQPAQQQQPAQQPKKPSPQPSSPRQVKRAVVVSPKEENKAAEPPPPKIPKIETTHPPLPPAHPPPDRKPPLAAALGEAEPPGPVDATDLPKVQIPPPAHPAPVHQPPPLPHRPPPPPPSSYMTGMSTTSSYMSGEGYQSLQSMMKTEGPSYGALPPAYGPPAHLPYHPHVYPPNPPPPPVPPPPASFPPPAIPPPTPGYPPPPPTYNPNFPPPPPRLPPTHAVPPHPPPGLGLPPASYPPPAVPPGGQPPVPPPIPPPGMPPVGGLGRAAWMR
T1 sequence (Q9NYV4 whole entry partner): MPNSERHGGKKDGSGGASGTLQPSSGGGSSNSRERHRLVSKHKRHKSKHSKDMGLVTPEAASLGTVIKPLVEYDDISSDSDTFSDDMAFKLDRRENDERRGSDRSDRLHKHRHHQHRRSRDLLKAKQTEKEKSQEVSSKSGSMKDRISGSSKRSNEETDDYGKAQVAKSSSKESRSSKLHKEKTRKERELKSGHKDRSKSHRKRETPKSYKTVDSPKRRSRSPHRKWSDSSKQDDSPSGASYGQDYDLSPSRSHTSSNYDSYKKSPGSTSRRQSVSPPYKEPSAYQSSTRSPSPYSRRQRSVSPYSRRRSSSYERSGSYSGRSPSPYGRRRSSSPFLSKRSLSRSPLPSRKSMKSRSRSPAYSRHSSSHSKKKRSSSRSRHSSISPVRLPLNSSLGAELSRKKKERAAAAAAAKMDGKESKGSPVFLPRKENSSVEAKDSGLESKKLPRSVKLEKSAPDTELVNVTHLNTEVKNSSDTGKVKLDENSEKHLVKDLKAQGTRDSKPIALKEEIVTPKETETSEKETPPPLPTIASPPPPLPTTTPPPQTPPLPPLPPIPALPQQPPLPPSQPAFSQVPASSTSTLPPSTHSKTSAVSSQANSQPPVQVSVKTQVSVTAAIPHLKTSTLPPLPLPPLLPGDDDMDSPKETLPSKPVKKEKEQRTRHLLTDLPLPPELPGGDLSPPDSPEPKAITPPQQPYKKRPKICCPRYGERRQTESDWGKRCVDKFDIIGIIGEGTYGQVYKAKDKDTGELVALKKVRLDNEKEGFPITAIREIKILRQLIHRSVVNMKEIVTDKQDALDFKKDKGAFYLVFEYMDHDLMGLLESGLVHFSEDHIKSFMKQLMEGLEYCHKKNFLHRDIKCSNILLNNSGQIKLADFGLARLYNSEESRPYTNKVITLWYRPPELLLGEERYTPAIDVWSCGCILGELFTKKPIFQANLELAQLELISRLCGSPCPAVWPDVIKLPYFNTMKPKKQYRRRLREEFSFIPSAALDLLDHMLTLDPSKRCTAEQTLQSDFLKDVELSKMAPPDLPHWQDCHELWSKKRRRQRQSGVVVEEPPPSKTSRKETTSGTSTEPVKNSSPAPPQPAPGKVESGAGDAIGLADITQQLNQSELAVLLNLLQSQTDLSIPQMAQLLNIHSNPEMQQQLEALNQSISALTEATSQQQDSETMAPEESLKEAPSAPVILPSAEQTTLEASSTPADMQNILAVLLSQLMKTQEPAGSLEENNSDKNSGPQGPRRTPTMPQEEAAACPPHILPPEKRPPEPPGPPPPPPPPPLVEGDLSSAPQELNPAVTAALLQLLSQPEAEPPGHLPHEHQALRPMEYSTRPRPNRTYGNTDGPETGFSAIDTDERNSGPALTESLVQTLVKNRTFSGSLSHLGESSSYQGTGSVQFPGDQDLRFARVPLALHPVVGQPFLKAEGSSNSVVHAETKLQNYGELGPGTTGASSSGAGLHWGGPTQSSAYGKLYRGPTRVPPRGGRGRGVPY

DC50 [1] [nM]	IC50 (CDK2/CycE) [µM]	IC50 [2] [nM]	Compound
0.0663	> 20	1.73	CN1CCN(c2nc(NCc3nc4c(F)c(F)ccc4[nH]3)n3ncc(C4CC4)c3n2)CC1 [Example 159, 8-cyclopropyl-N-[(4,5-difluoro-1H-benzimidazol-2-yl)methyl]-2-(4-methylpiperazin-1-yl)pyrazolo[1,5-a][1,3,5]triazin-4-amine]
0.743	5.17	6.5	COc1ccc2[nH]c(CNc3nc(N4CCOCC4)nc4c(Br)cnn34)nc2c1 [Example 160, 8-bromo-N-[(5-methoxy-1H-benzimidazol-2-yl)methyl]-2-(morpholin-4-yl)pyrazolo[1,5-a][1,3,5]triazin-4-amine]
0.112	4.63	1.55	Clc1ccc2[nH]c(CNc3nc(N4CCOCC4)nc4c(Br)cnn34)nc2c1 [Example 162, 8-bromo-N-[(5-chloro-1H-benzimidazol-2-yl)methyl]-2-(morpholin-4-yl)pyrazolo[1,5-a][1,3,5]triazin-4-amine]
0.279	10.8	1.05	CN1CCN(c2nc(NCc3nc4cc(Cl)ccc4[nH]3)n3ncc(Br)c3n2)CC1 [Example 163, 8-bromo-N-[(5-chloro-1H-benzimidazol-2-yl)methyl]-2-(4-methylpiperazin-1-yl)pyrazolo[1,5-a][1,3,5]triazin-4-amine]
1.12	> 20	4.13	CN1CCN(c2nc(NCc3nc4cc(F)ccc4[nH]3)n3ncc(C4CC4)c3n2)CC1 [Example 164, 8-cyclopropyl-N-[(5-fluoro-1H-benzimidazol-2-yl)methyl]-2-(4-methylpiperazin-1-yl)pyrazolo[1,5-a][1,3,5]triazin-4-amine]
0.155	> 20	4.16	CN1CCN(c2nc(NCc3nc4c(F)cccc4[nH]3)n3ncc(C4CC4)c3n2)CC1 [Example 165, 8-cyclopropyl-N-[(4-fluoro-1H-benzimidazol-2-yl)methyl]-2-(4-methylpiperazin-1-yl)pyrazolo[1,5-a][1,3,5]triazin-4-amine]
